Results from US8530679B2, “Delta 9—tetrahydrocannabinol processing” (Resolution Chemicals Limited, priority 2007, dated 2013).

How the values were obtained:
[1] = cited from earlier work; for psychomimetic activity: constituents of cannabis
[2] = stability of Δ9-THC on handling and storage; conditions: solution prepared below room temperature, typically below 0° C., in some instances −40° C. and even −78° C.
[3] = susceptible to rearrangement and oxidation; cited from earlier work

C=C(C)[C@@H]1CCC(C)=C[C@H]1c1c(O)cc(CCCCC)cc1O [Cannabidiol]
psychomimetic activity [1]: little activity

CCCCCc1cc2c(c(O)c1C(=O)O)[C@@H]1C=C(C)CC[C@H]1C(C)(C)O2 [THCA-A, Δ9-THC carboxylic acid]
psychomimetic activity [1]: psychomimetically inactive

CCCCCc1cc(O)c2c(c1)OC(C)(C)[C@@H]1CCC(C)=C[C@@H]21 [Δ9-THC, Δ9-tetrahydrocannabinol]
stability / degradation in solution of low boiling point solvent [2]: no significant degradation
psychomimetic activity relative to Δ8-THC ([1]; greater than Δ8-THC): 20 times
stability at room temperature [3]: relatively unstable
